Experimental data from US5004758A, “Water soluble camptothecin analogs useful for inhibiting the growth of animal tumor cells” (priority 1988, dated 1991).
Where a name gives a salt, the structure may show the parent alone. Read-outs that look alike come from different tables or passages of the source.

Assays:
[1] = test system: L1210 leukemia cells; assay: cells; type: cell-based, mouse
Experimental: Cells were exposed continuously upon cloning into medium containing 0.2 percent Noble agar. After incubation at 37° C. in a CO2 incubator for 3 days, colonies were stained with viable cell specific formazan stain and, 24 hours later, were enumerated by a colony counter (Biotran II, New Brunswick Scientific Co., Edison, N.J.) adjusted to identify colonies of more than 50 cells. The concentration which reduced cloning efficiency by 50 percent IC50) was determined by interpolation.

[2] = test system: ip M5076 sarcoma; assay: ip-implanted M5076 sarcoma in mice; type: in vivo, mouse; conditions: ip M5076 Sarcoma; optimal doses and optimal schedules
Text: (§2) Tumors used in these studies--P388 leukemia and its doxorbicin--and mitoxanrone-resistant sublines, L1210 leukemia, B16 melanoma, B16 melanoma/F10 subline, M5076 sarcoma and colon carcinoma 26--are maintained by serial transplantation in syngeneic strains of mice. For the leukemias, these tumors are maintained in DBA/2 mice. The M5076 sarcoma, the B16 melanoma and its F10 subline are maintained in C57B1/6 mice and the colon sarcinoma 26 is maintained in BALB/c mice. The leukemias and the M5076 sarcoma are serially transplanted i.p. as ascites cell suspensions while the B16 melanoma lines and the colon carcinoma 26 are serially transplanted as s.c. solid tumors.
(§3) For therapeutic trials, tumors are aseptically removed from donor mice and prepared as suspensions for implantation ip into test animals. The test animals for the colon carcinoma 26 are female BALB/c mice (20-25 gm). The test animals for the other tumor models are syngeneic female F1 hybrid B6D2F1 mice (C57B1/6 x DBA/2). The inoculum level varies with the type of tumor: P388 leukemia is inoculated at 10^6 cells per mouse, L1210 leukemia at 10^5 or 10^6 cells per mouse, M5076 sarcoma at 5×10^6 cells per mouse. For implantation of the B16 melanoma lines and the colon carcinoma 26, s.c. tumors from donor mice are minced and homogenized in loose fitting teflon glass homogenizer to give a tumor brei. The inoculum levels are 0.5 ml of a 10 percent (w:v) brei of the B16 melanoma lines and 0.5 ml of a 5 percent (w:v) brei of colon carcinoma 26. After tumor inoculation, mice randomized to treatment groups comprised of 6-8 mice each. In each experiment, there are three groups of untreated control mice. Drugs are dissolved or suspended in appropriate aqueous vehicles and given by a variety of routes and schedules of administration over a range of dose levels. Animals are housed in shoebox cages and are monitored daily for mortality for 30 (L1210), 45 (P388) or 60 (B16, M5076, colon 26) days.

[3] = test system: ip colon carcinoma 26; assay: ip-implanted colon carcinoma 26 in mice; type: in vivo, mouse; conditions: ip Colon Carcinoma 26; optimal doses and optimal schedules
Text: as §2, §3

[4] = test system: sc Lewis lung carcinoma; type: in vivo, mouse; conditions: sc Lewis Lung Carcinoma; optimal doses and optimal schedules
Text: (§1) The inoculum varies with the tumor.

[5] = test system: sc B16 melanoma/F10 subline; assay: sc-implanted B16 melanoma/F10 subline in mice; type: in vivo, mouse; conditions: sc B16 Melanoma/F10 Subline; optimal doses and optimal schedules
Text: as §1

[6] = test system: sc ADJ-PC6 plasmacytoma; assay: sc-implanted ADJ-PC6 plasmacytoma in mice; type: in vivo, mouse; conditions: sc ADJ-PC6 Plasmacytoma; optimal doses and optimal schedules
Experimental: (§4) Inhibition of tumor growth (TGI) is based on mean tumor volume of groups of 7 or 8 mice relative to untreated controls. Tumors were measured between Days 12 and 19 (except Day 24 for Colon 51 and Day 31 for Colon 38).
(§5) Tumors used in these studies are maintained by serial transplantation in syngeneic strains of mice C57BL/6 for Lewis lung carcinoma, B16 melanoma and its F10 subline, M5076 sarcoma and colon adenocarcinoma 38; BALB/c for colon carcinoma 26, ADJ-PC6 plasmacytoma Madison lung carcinoma and colon adenocarcinoma 51, C3H for mammary adenocarcinoma 16/c. With the exception of the M5076 sarcoma, which is maintained as a i.p ascites cell suspension, all of the tumors were serially transplanted as s.c. solid tumors.
(§6) For therapeutic trials, tumors were aseptically removed from donor mice and prepared for implantation s.c. into test animals. The test animals for Lewis lung carcinoma, B16 melanoma and its F10 subline, M5076 sarcoma and colon adenocarcinoma 38 are syngeneic female F1 hybrid B6D2F mice (C57B1/6×DBA/2). ADJ-PC6 plasmacytoma and colon carcinoma 26 are evaluated in female BALB/c mice. Madison lung carcinoma and colon adenocarcinoma 51 are evaluated in syngeneic female F1 hybrid CD2F1 mice (BALB/c×DBA/2). Mammary adenocarcinoma 16/c is evaluated in female C3H mice. The inoculum varies with the tumor. Colon adenocarcinomas 38 is implanted as 2 mm fragments by trochar. M5076 sarcoma and ADJ-PC6 plasmacytoma are implanted as cell suspensions at 5×10^6 and 2×10^6 cells per mouse, respectively. Colon carcinoma 26, colon adenocarcinoma 51, Lewis lung carcinoma, Madison lung carcinoma and B16 melanoma and its F10 subline are implanted as tumor breis prepared as described above in a volume of 0.5 ml. The brei concentration was 10 percent (w:v) except for colon carcinoma 26 for which the brei concentration was 5 percent (w:v). After tumor inoculation, mice are randomized to treatment groups of 7 or 8 mice. In each experiment, there are three groups of untreated control mice.
(§7) Drugs are dissolved or suspended in appropriate aqueous vehicles and given by a variety of routes of administration and treatment schedules over a range of dosage levels. Animals are housed in shoebox cages and are monitored daily for mortality. […] Time for tumor measurement is dependent on the different rates of tumor growth of the different tumors: the most rapidly growing tumors such as the Lewis and Madison lung tumors, B16 melanoma and its F10 subline were measured between Days 12 and 16. The slower growing tumors were measured at later time points--17 days for M5076 sarcoma, 16 or 19 days for mammary adenocarcinoma 16/c, 19 days for ADJ-PC6 plasmacytoma and colon carcinoma 26, 24 days for colon adenocarcinoma 51, and 31 days for colon adenocarcinoma 38.

[7] = test system: sc M5076 sarcoma; assay: sc-implanted M5076 sarcoma in mice; type: in vivo, mouse; conditions: sc M5076 Sarcoma; optimal doses and optimal schedules
Text: as §1

[8] = test system: sc mammary adenocarcinoma 16/c; assay: in vivo; parameters: species or system mouse; conditions: sc Mammary Adenocarcinoma 16/c; optimal doses and optimal schedules
Text: as §1

[9] = test system: sc Madison lung carcinoma; assay: sc-implanted Madison lung carcinoma in mice; type: in vivo, mouse; conditions: sc Madison Lung Carcinoma; optimal doses and optimal schedules
Text: as §1

[10] = test system: sc colon carcinoma 26; assay: sc-implanted colon carcinoma 26 in mice; type: in vivo, mouse; conditions: sc Colon Carcinoma 26; optimal doses and optimal schedules
Text: as §1

[11] = Aqueous solubility; type: physicochemical
[12] = test system: ip P388 leukemia; conditions: ip P388 Leukemia; optimal doses and optimal schedules
Experimental: Increase in lifespan (ILS) is based on median survival time of groups of 6 mice. Net tumor cell kill (NCK) is calculated from median survival time by standard methods, since survival time is a linear function of the log tumor cell burden.
Animals were implanted ip with 10^6 cells. Increase in lifespan (ILS) is based on median survival time of groups of 6 mice relative to untreated controls. Long-term survivors were tumor-free on Day 45.
as §2, §3

[13] = test system: ip B16 melanoma; conditions: ip B16 Melanoma; optimal doses and optimal schedules
Text: as §2, §3

[14] = test system: ip B16 melanoma/F10 subline; conditions: ip B16 Melanoma/F10 Subline; optimal doses and optimal schedules
Text: as §2, §3

[15] = test system: iv P388 leukemia; conditions: iv P388 Leukemia; optimal doses and optimal schedules
Text: (§8) Tumors used in these studies P388 leukemia, L1210 leukemia and Lewis lung carcinoma--are maintained by serial transplantation in syngeneic strains of mice, DBA/2 for the leukemias and C57B1/6 for Lewis lung carcinoma. The leukemias are serially transplanted i.p. as ascites cell suspensions while the Lewis lung carcinoma is serially transplanted as a s.c. solid tumor.
(§9) For therapeutic trials, tumors were aseptically removed from donor mice and prepared as suspensions for implantation into test animals which for each tumor are syngeneic female F1 hybrid B6D2F1 mice (C57B1/6×DBA/2). The inoculum level varies with the type of tumor: P388 leukemia is inoculated at 10^6 cells per mouse, L1210 leukemia at 10^5 or 10^6 cells per mouse, and Lewis lung carcinoma at 0.25 ml of a 10 percent (w:v) brei. […] After tumor inoculation, mice are randomized to treatment groups of 6 to 8 mice each. In each experiment, there are three groups of untreated control mice.
(§10) Drugs are dissolved or suspended in appropriate aqueous vehicles and given i.p. or i.v. on various treatment schedules over a range of dosage levels. Animals are housed in shoebox cages and monitored daily for mortality for 30 (L1210), 45 (P388) or 60 (Lewis lung) days.

[16] = test system: iv L1210 leukemia; conditions: for Increase in Lifespan (ILS) or Inhibition of Tumor Growth (TGI): iv L1210 Leukemia, optimal doses and optimal schedules; for ILS: iv L1210 (10^6 cells), Days 1 & 5, route ip in table head (iv)
Text: (§11) Animals were inoculated iv with 10^6 cells. Increase in lifespan (ILS) is based on median survival time of groups of 6 mice relative to untreated controls.
(§12) The protocols utilized for the evaluation of the antitumor activity of Formula (I) compounds are well established and widely utilized by those skilled in the art of assessing the activity of drugs in preclinical tumor models. These studies generally follow the protocols established by the National Cancer Institute as described by Geran et al., Cancer Chemotherapy Reports, Part 3, Vol. 3, 1-103, 1972.
as §8, §9, §10

[17] = ip-implanted L1210 leukemia in mice; conditions: mouse, in vivo, ip;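 further: each mouse received 10^6 L1210 cells intraperitoneally, with drug treatment also given by the i.p. route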
Experimental: (§13) For in vivo studies L1210 cells were implanted i.p. (10^6 per mouse)
(§14) and drugs were administered i.p. on Days 1 and 5. Increase in lifespan
(§15) (ILS) was based on median survival time of groups of 6 mice treated at th
maximally tolerated dose of the drugs.

[18] = test system: ip L1210 leukemia; assay: ip-implanted L1210 leukemia in mice;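 on all read-outs here: each mouse received 10^6 L1210 cells intraperitoneally, with drug treatment also given by the i.p. route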; conditions: for In Vivo Antitumor Activity ILS (increase in lifespan): ip L1210 (10^6 cells), drug i.p. Days 1 and 5 at maximally tolerated dose; for Increase in Lifespan (ILS) or Inhibition of Tumor Growth (TGI): ip L1210 Leukemia, optimal doses and optimal schedules
Experimental: as §13, §14, §15
maximally tolerated dose of the drugs.

[19] = reported by Wani et al., J. Med. Chem., 30, 1774 (1987); cited from earlier work
[20] = in vivo; conditions: mouse, ip
Experimental: as §13, §14, §15
maximally tolerated dose of the drugs.

[21] = in vivo; conditions: mouse, iv
Text: as §11, §12, §8, §9, §10

[22] = test system: sc colon adenocarcinoma 51; type: in vivo, mouse; conditions: sc Colon Adenocarcinoma 51; optimal doses and optimal schedules
Text: as §1

[23] = test system: sc B16 melanoma; conditions: sc B16 Melanoma; optimal doses and optimal schedules
Text: Inhibition of tumor growth (TGI) is based on mean tumor volume of groups of 7 or 8 mice relative to untreated controls.
as §5, §6, §7
For highly metastatic tumors including: Lewis and Madison lung tumors, colon carcinoma 26 and B16 melanoma and its F10 subline, tumor-bearing mice are monitored for survival time as well. For the less mestastatic tumor models, tumor-bearing mice are killed following tumor measurement. In this setting, an increase in lifespan of ≥30 percent is considered to be evidence of drug activity.

[24] = test system: sc colon adenocarcinoma 38; conditions: sc Colon Adenocarcinoma 38; optimal doses and optimal schedules
Experimental: as §4, §5, §6, §7

[25] = Mus musculus, L1210, read-out: In Vitro Activity IC50

SMILES: CC[C@@]1(O)C(=O)OCc2c1cc1n(c2=O)Cc2cc3cc(O)ccc3nc2-1 [10-Hydroxycamptothecin, (20 S) 10-Hydroxycamptothecin, reference compound]
- IC50 ([1]; L1210 suspension culture, continuous exposure, cloning into soft agar, read-out: In Vitro Activity IC50): 18 nM
- Increase in Lifespan (ILS) or Inhibition of Tumor Growth (TGI) [2]: 98 % ILS
- Increase in Lifespan (ILS) or Inhibition of Tumor Growth (TGI) [3]: Curative
- Increase in Lifespan (ILS) or Inhibition of Tumor Growth (TGI) [4]: 4 % TGI
- Increase in Lifespan (ILS) or Inhibition of Tumor Growth (TGI) [5]: 58 % TGI
- Increase in Lifespan (ILS) or Inhibition of Tumor Growth (TGI) [6]: 76 % TGI
- Increase in Lifespan (ILS) or Inhibition of Tumor Growth (TGI) [7]: 66 % TGI
- Increase in Lifespan (ILS) or Inhibition of Tumor Growth (TGI) [8]: 61 % TGI
- Increase in Lifespan (ILS) or Inhibition of Tumor Growth (TGI) [9]: 33 % TGI
- Increase in Lifespan (ILS) or Inhibition of Tumor Growth (TGI) [10]: 37 % TGI
- solubility in water / aqueous vehicles [11]: insolubility in aqueous vehicles
- Increase in Lifespan (ILS) or Inhibition of Tumor Growth (TGI) [12]: Curative
- Increase in Lifespan (ILS) or Inhibition of Tumor Growth (TGI) [13]: 95 % ILS
- Increase in Lifespan (ILS) or Inhibition of Tumor Growth (TGI) [14]: 100 % ILS
- Increase in Lifespan (ILS) or Inhibition of Tumor Growth (TGI) [15]: 40 % ILS
- Increase in Lifespan (ILS) or Inhibition of Tumor Growth (TGI) [16]: 100 % ILS
- MTD [17]: 9 mg/kg
- In Vivo Antitumor Activity ILS (increase in lifespan) [18]: 94%
- Increase in Lifespan (ILS) or Inhibition of Tumor Growth (TGI) [18]: 94 % ILS

SMILES: CCC1(O)C(=O)OCc2c1cc1n(c2=O)Cc2cc3ccc(N)cc3nc2-1 (stereo not shown) [11-amino]
- activity in an assay for antitumor activity [19]: active

SMILES: CCC1(O)C(=O)OCc2c1cc1n(c2=O)Cc2cc3ccc(CN)cc3nc2-1 (stereo not shown) [11-aminomethyl analog]
- activity in an assay for antitumor activity [19]: inactive

SMILES: CCC1(O)C(=O)OCc2c1cc1n(c2=O)Cc2cc3ccc(C#N)cc3nc2-1 (stereo not shown) [11-cyano]
- activity in an assay for antitumor activity [19]: active

SMILES: CCC1(O)C(=O)OCc2c1cc1n(c2=O)Cc2cc3ccc([N+](=O)[O-])cc3nc2-1 (stereo not shown) [11-nitro]
- activity in an assay for antitumor activity [19]: active

SMILES: CC[C@@]1(O)C(=O)OCc2c1cc1n(c2=O)Cc2cc3c(CN(C)C)cccc3nc2-1 [15S, (20S) 9-Dimethylaminomethylcamptothecin]
- IC50 [1, 25]: 65 nM
- MTD [17]: 15 mg/kg
- In Vivo Antitumor Activity ILS (increase in lifespan) [18]: 88%

SMILES: CC[C@@]1(O)C(=O)OCc2c1cc1n(c2=O)Cc2cc3cc(C#N)ccc3nc2-1 [16S, 10-Cyanocamptothecin]
- IC50 [1, 25]: 80 nM
- MTD [17]: 3 mg/kg
- In Vivo Antitumor Activity ILS (increase in lifespan) [18]: 100%

SMILES: CC[C@@]1(O)C(=O)OCc2c1cc1n(c2=O)Cc2cc3c(CC#N)c(O)ccc3nc2-1 [17S, (20S) 10-Hydroxy-9-cyanomethylcamptothecin]
- IC50 [1, 25]: 400 nM
- MTD [17]: 12 mg/kg
- In Vivo Antitumor Activity ILS (increase in lifespan) [18]: > 200%

SMILES: CC[C@@]1(O)C(=O)OCc2c1cc1n(c2=O)Cc2cc3c(CN4CCOCC4)cccc3nc2-1 [18S, (20S) 9-Morpholinomethylcamptothecin]
- IC50 [1, 25]: 690 nM
- MTD [17]: 13 mg/kg
- In Vivo Antitumor Activity ILS (increase in lifespan) [18]: 144%

SMILES: CC[C@@]1(O)C(=O)OCc2c1cc1n(c2=O)Cc2cc3cc(CN)ccc3nc2-1 [20S, (20S) 10-Aminomethylcamptothecin Acetate salt]
- IC50 [1, 25]: 90 nM
- MTD [17]: 92 mg/kg
- In Vivo Antitumor Activity ILS (increase in lifespan) [18]: 112%

SMILES: CC[C@@](O)(C(=O)O)c1cc2n(c(=O)c1CO)Cc1cc3c(CN(C)C)c(O)ccc3nc1-2 [21S, Sodium Salt]
- fold less potent than the three acid salts ([16]; by maximally tolerated dose, iv L1210): about 3.5 fold
- ILS ([16]; 6.5 mg/kg): 33%
- ILS ([16]; 12 mg/kg): 67%
- ILS ([16]; 19 mg/kg): 100%
- ILS ([16]; 32 mg/kg): 133%
- ILS ([16]; 54 mg/kg): 208%
- ILS ([16]; 90 mg/kg): toxic
- MTD [20]: 54 mg/kg
- MTD [21]: 54 mg/kg
- In Vivo Antitumor Activity ILS (increase in lifespan) [18]: > 200%

SMILES: CC[C@@]1(O)C(=O)OCc2c1cc1n(c2=O)Cc2cc3c(CCN)c(O)ccc3nc2-1 [22S, (20S) 10-Hydroxy-9-aminoethylcamptothecin Acetate Salt]
- IC50 [1, 25]: 360 nM
- MTD [17]: 100 mg/kg
- In Vivo Antitumor Activity ILS (increase in lifespan) [18]: 75%

SMILES: CC[C@@]1(O)C(=O)OCc2c1cc1n(c2=O)Cc2cc3ccccc3nc2-1 [Camptothecin]
- Increase in Lifespan (ILS) or Inhibition of Tumor Growth (TGI) [2]: 81 % ILS
- Increase in Lifespan (ILS) or Inhibition of Tumor Growth (TGI) [3]: 50 % ILS
- Increase in Lifespan (ILS) or Inhibition of Tumor Growth (TGI) [4]: 92 % TGI
- Increase in Lifespan (ILS) or Inhibition of Tumor Growth (TGI) [22]: 75 % TGI
- Increase in Lifespan (ILS) or Inhibition of Tumor Growth (TGI) [5]: 90 % TGI
- Increase in Lifespan (ILS) or Inhibition of Tumor Growth (TGI) [6]: 100 % TGI
- Increase in Lifespan (ILS) or Inhibition of Tumor Growth (TGI) [7]: 100 % TGI
- Increase in Lifespan (ILS) or Inhibition of Tumor Growth (TGI) [8]: 99 % TGI
- Increase in Lifespan (ILS) or Inhibition of Tumor Growth (TGI) [9]: 63 % TGI
- Increase in Lifespan (ILS) or Inhibition of Tumor Growth (TGI) [10]: 66 % TGI
- solubility in water / aqueous vehicles [11]: insolubility in aqueous vehicles
- Increase in Lifespan (ILS) or Inhibition of Tumor Growth (TGI) [12]: Curative
- Increase in Lifespan (ILS) or Inhibition of Tumor Growth (TGI) [13]: 36 % ILS
- Increase in Lifespan (ILS) or Inhibition of Tumor Growth (TGI) [14]: 68 % ILS
- Increase in Lifespan (ILS) or Inhibition of Tumor Growth (TGI) [15]: 75 % ILS
- Increase in Lifespan (ILS) or Inhibition of Tumor Growth (TGI) [16]: 136 % ILS
- Increase in Lifespan (ILS) or Inhibition of Tumor Growth (TGI) [23]: 78 % TGI
- Increase in Lifespan (ILS) or Inhibition of Tumor Growth (TGI) [24]: 100 % TGI
- Increase in Lifespan (ILS) or Inhibition of Tumor Growth (TGI) [18]: 172 % ILS
